Common to all, as to assay type: cell-based, human
One test deals with SNAT1 and SNAT2. Briefly: High-throughput compound screen, FMP assay in 384-well format (primary, confirmatory, control compounds). The conditions noted are these: Figure 3A; ranked hits of the high-throughput screen, FMP assay. How it is done: For the high-throughput compound screen, the FMP assay was adapted into a 384-well format within the ANU Centre for Therapeutic Discovery. […] Compounds Australia stores compounds under robust environmental conditions and supplies them in assay ready plate format. We screened 33,934 compounds from the Collection Scaffold Library. Cells (10,000/well) were seeded into Corning 384-well black walled plates (CLS3985; Sigma-Aldrich) using a Multidrop Combi liquid dispensing robot (Thermo Fisher) in a 40 µl volume. Once seeded, cells were allowed to grow in a microplate incubator (Liconic) for 24 h at 37°C (humidified atmosphere with 95% air and 5% CO2). Subsequently, plates were washed thrice with 50 µL of mHBSS using a 405 TS washer (BioTek). Then, 50 µl of starvation medium was added and cells were incubated again for 24 h.
Assay-ready compound plates (384 well plates containing compound or DMSO controls) were then prepared prior to addition to cells. In addition to the supplied compounds, 5 µl γ-glutamyl-hydroxamate (GHX, 60 mM dissolved in mHBSS, serving as an inhibitor control) was added into inhibitor control wells using a JANUS G3 robot (PerkinElmer). Subsequently, 25 uL of mHBSS was dispensed into all wells of the 384 well plate using a Multidrop Combi. All samples were then mixed using the JANUS G3 robot and 15 µl dispensed on top of the cell monolayer to reach a final concentration of 10.05 µM.
The FMP dye was solved freshly with mHBSS, 20 µl of which was deposited into each well using the Multidrop Combi, and the cells were incubated at room temperatur for 30 min. Each plate was then placed in an EnVision microplate reader (PerkinElmer) and a single baseline measurement was taken for each well (bottom reads excitation at 531, emission at 579 nm). The plate was then transferred to the Multidrop Combi and 10 µl/well of 5 mM glutamine was dispensed into each well. After linearly shaking for 5 s, microplates were returned to the EnVision microplate reader for a single post-injection measurement per well. The change of fluorescence was measured after 60 s.
Z′ scores were calculated from the controls onboard each of the 384-well plates assayed in the primary and secondary screen as described by Zhang et al., ([Zhang et al., 1999]). For the control inhibitor γ-glutamyl-hydroxamate (GHX) a Z’ score of 0.717 was determined, which was a sufficient signal for a HTS.

A further test has as its system SNAT1/2. Kind of test: [14C]glutamine uptake in HCC1806 cells. How it is done: (§1) Functional characterisation of plasma membrane transporters in human cancer cells was determined at 37°C using an array of radiolabelled amino acid substrates. Modified Hanks HEPES-buffered salts solution (mHBSS; 137 mM NaCl; 5.4 mM KCl; 2.7 mM K2HPO4; 1 mM CaCl2; 0.5 mM MgCl2; 0.44 mM KH2PO4; 0.4 mM MgSO4; 5 mM D-glucose; 5 mM HEPES; pH 7.4) was used to wash and incubate cells where sodium dependent transport was measured, while N-methyl-D-glucamine (NMDG) and potassium salts substituted sodium in NMDG mHBSS to measure sodium independent uptake. For the assay, cells were seeded in 35 mm dishes and, once confluent, were washed thrice with warm mHBSS solution and incubated with mHBSS containing an 100 µM amino acid at a final specific activity of ≥2000 cpm/nmol (U-[^14C]amino acids were from PerkinElmer). After 6 min, cells were washed thrice with ice-cold mHBSS, lysed with 500 µl of 0.1 M HCl, detached with a cell scraper and triturated. A 400 µl aliquot was used for scintillation counting, while the remainder was saved for protein mass quantification by Bradford assay. Transport rates were normalised to the protein content of the culture dish.

In another test the test system is SNAT2. Kind of test: Radiolabelled proline uptake in amino acid depleted SKOV3 cells. How it is done: as §1
IC50 were calculated using equation y=ymax(1−x/x+IC50)

Values joined by “and” are separate entries in the source; they are usually repeats but may differ in a detail not shown here. Identical values can stand only once.

For the compound `Cc1ccc(S(=O)(=O)N(C)c2ccsc2C(=O)NCc2ccccc2C(F)(F)F)cc1` [Compound 57_E, 3-(N-methyl (4-methylphenyl)sulfonamido)-N-(2-trifluoromethylbenzyl)thiophene-2-carboxamide], the “% (delta) Fluorescence Signal” value in the test on SNAT1 and SNAT2 came out at 58.6322%. Further, in the test on SNAT1/2 (50 µM inhibitor, HCC1806 after 24 h amino acid depletion), the “inhibition of 100 µM glutamine uptake” value is “inhibited a significant fraction of the MeAIB-sensitive component of glutamine uptake”. Further, in the test on SNAT1/2 (Figure 3D, replicates 1-3), the “Glutamine uptake (nmol / mg protein x 6 min)” value was 46.6677 nmol / mg protein x 6 min and 48.4796 nmol / mg protein x 6 min and 48.0528 nmol / mg protein x 6 min. Moreover, the “inhibition of proline uptake” value with SNAT2 (30 µM, Figure 4A) is “inhibition equivalent to betaine”. Further, the “Proline uptake (nmol / mg protein x 6 min)” value in the test on SNAT2 (Figure 4A, screening compounds, replicates 1-3) is 12.1271 nmol / mg protein x 6 min and 12.3527 nmol / mg protein x 6 min and 11.9613 nmol / mg protein x 6 min; in the test with SNAT2 (Figure 5B, 0.03 uM), 13.4934 nmol / mg protein x 6 min and 12.6179 nmol / mg protein x 6 min and 11.806 nmol / mg protein x 6 min and 12.3756 nmol / mg protein x 6 min; in the test with SNAT2 (Figure 5B, 0.1 uM), 11.4589 nmol / mg protein x 6 min and 11.5974 nmol / mg protein x 6 min and 12.2114 nmol / mg protein x 6 min and 11.4952 nmol / mg protein x 6 min; in the test on SNAT2 (Figure 5B, 0.3 uM), 9.658 nmol / mg protein x 6 min and 10.0504 nmol / mg protein x 6 min and 12.5202 nmol / mg protein x 6 min and 8.873 nmol / mg protein x 6 min; in the test with SNAT2 (Figure 5B, 1 uM) it was 8.923 nmol / mg protein x 6 min and 10.4357 nmol / mg protein x 6 min and 8.533 nmol / mg protein x 6 min; with SNAT2 (Figure 5B, 3 uM), 6.737 nmol / mg protein x 6 min and 7.879 nmol / mg protein x 6 min and 6.95 nmol / mg protein x 6 min and 7.052 nmol / mg protein x 6 min. The “Proline uptake (nmol / mg protein x 6 min)” value with SNAT2 (Figure 5B, 10 uM) is 6.707 nmol / mg protein x 6 min and 7.214 nmol / mg protein x 6 min and 6.31 nmol / mg protein x 6 min and 7.23 nmol / mg protein x 6 min.

The values are drawn from article PMC9532951, “Identification and characterization of a novel SNAT2 (SLC38A2) inhibitor reveals synergy with glucose transport inhibition in cancer cells” (Frontiers in Pharmacology, 2022).
